Laboratory results taken from US6974867B2, “Compositions and methods for treating neoplastic disease using chemotherapy and radiation sensitizers” (Chiron Corporation, priority 2000, dated 2005).

Legend:
HT1080 cells = assay: Cell cycle arrest upon γ-irradiation in transfected HT1080 cells; format: cell-based, human
Experimental: Because both p53 and p21 are involved in the G1 to S phase cell cycle transition, the following experiments were performed in order to assess the effect of KIAA0175 anti-sense molecules on cell cycle regulation.
Table 1 discloses the percentage of HT1080 cells in each stage of the cell cycle at various times following exposure to γ-irradiation. By 24 hours, cells were arrested in both the G1 and G2 phases as evidenced by the elevated percentage of cells in G0/G1 and G2/M phases as compared to the diminished percentage of cells in the S phase.
Table 2 discloses the effect of KIAA0175 anti-sense molecules on γ-irradiation induced cell-cycle arrest. In cells transfected with anti-sense molecules, there was a reduction in the accumulation of cells in the G1 phase and a minimized reduction in the number of cells in the S phase as compared to cells transfected with a “reverse-control” anti-sense molecule as control.

p53 [1] = assay: Western analysis of p53 protein level after anti-sense transfection, HT1080 cells; format: cell-based, human
From the text: (§1) In separate experiments, either HT1080 or HCT116 cells expressing endogenous KIAA0175 and p53 were transfected with either FITC, KIAA0175 anti-sense oligonucleotides (i.e. 545 or 1182), or the corresponding reverse control oligonucleotides (RC or RC545). Total cell lysates were fractionated by SDS-polyacrylamide gel electrophoresis and transferred to nitrocellulose membranes. Specific proteins were detected by Western analysis using antibodies to either KIAA0175 (rabbit polyclonal antisera), p53, Erk2, or p21 antibodies as indicated. Antibodies against p53, p21 and Erk2 were obtained from Santa Cruz Biotechnology, Inc. (Santa Cruz, Calif.).

KIAA0175 mRNA = assay: Northern analysis of KIAA0175 mRNA after anti-sense oligonucleotide transfection; format: cell-based, human; details: HT1080 cells
Experimental: HT 1080 cells express endogenous KIAA0175. These cells were transfected with either the FITC (negative control) or AKT1 (positive control) oligonucleotides), 1182, or 545 oligonucleotides. Briefly, 100 nM of the respective anti-sense oligonucleotide was mixed with lipitoid 1 transfection reagent (Huang et al., Chemistry and Biology 5(6):346-354 (1998)) in a 1:3 volume to volume ratio in OPTI-MEM (GibcoBRL). The mixture was added to the HT1080 cells in complete medium (EMEM, 10% heat inactivated fetal bovine serum (FBS), 2 mM L-Glutamine, 100 U/ml Penicillin, and […] Streptomycin) and the cells were incubated at 37° C. for ^˜4-5 hours in the presence of the anti-sense oligonucleotides before changing to fresh complete medium. Total RNA was extracted at day 1 or 24, 48, or 72 hours following transfection and mRNA levels of KIAA0175 were detected by Northern analysis. 20 μg of total RNA were subjected to electrophoresis on a denaturing agarose gel. RNA was transferred to nitrocellulose and KIAA0175 mRNA was detected by probing with a ^32P-labeled, 0.7 kb KIAA0175 cDNA fragment. To control for equal loading of individual lanes, the blot was stripped of the KIAA0175 probe and re-probed with a ^32P-labeled G3PDH cDNA probe obtained from Clontech.

p21 = assay: Western analysis of p21 after γ-irradiation of transfected HT1080 cells; format: cell-based, human; details: 10 Gy γ-irradiation 24 hours after transfection
Experimental: (§2) HT1080 cells expressing endogenous KIAA0175 were transfected with the KIAA0175 anti-sense oligonucleotide (1182) and the corresponding reverse control oligonucleotide (RC1182). After culture for 24-hours, the transfected cells were treated with 10 Gy of γ-irradiation. At various times after irradiation, cells were harvested and lysates prepared and subjected to SDS-PAGE. p53, Erk2, and p21 proteins were detected by Western analysis.

p53 [2] = assay: Western analysis of p53 after γ-irradiation of transfected HT1080 cells; format: cell-based, human; details: 10 Gy γ-irradiation 24 hours after transfection
Experimental: as §2

[3] = tested on: Normal Breast Epithelial Cell Line 184B5; assay: LDH cytotoxicity assay, normal breast epithelial cell line; format: cell-based
Experimental: (§3) The effect of KIAA0175 anti-sense molecules on cell sensitivity to chemotherapeutic drugs was tested on several cell lines using the lactate dehydrogenase (LDH) cytotoxicity assay essentially as follows:
(§4) Day 1: Cells were seeded in 4 separate 96 well plates, typically 5000 cells/well and incubated at 37° C. and 5% CO2.
(§5) Day 2: Cells were transfected with the KIA175-1182 and KIA175-545 anti-sense oligonucleotides (SEQ ID NOs:5 and 1, respectively) as well as the reverse complement controls, RC1182 and RC545 (SEQ ID NOs:6 and 2, respectively) essentially as described in Example 4, with and without drug. One plate (day 0) was left untransfected as a seeding control.
(§6) The transfection was carried out using a lipid vehicle for delivery as described in WO 01/16306, hereby incorporated in its entirety. Briefly, the transfection used agents known as “lipitoids” and “cholesteroids”, described, for example, in PCT publications WO 01/16306, WO 98/06437 and WO 99/08711, based on U.S. Ser. No. 60/023,867, 60/054,743, and 09/132,808, which are also hereby incorporated by reference. These lipid-cationic peptoid conjugates are shown in these references to be effective reagents for the delivery of plasmid DNA to cells in vitro. Any of the carriers described in the above-referenced applications are suitable for use in transfection of the oligonucleotides described herein.
(§7) Depending on the cell type, different lipid vehicles were used for different lengths of time for transfection. […] The transfection was carried out in complete medium and the final anti-sense oligonucleotide concentration was 300 nM per well. In the wells with drug, the drug was added to the culture at the beginning of the transfection.
(§8) Starting on Day 3: Cells were recovered, 1 plate/day and release of LDH into the supernatant was measured using a kit from Roche according to manufacturer's instructions (Roche Diagnostics, Basel, Switzerland) (data labeled as day 1, 2, 3).
(§9) For each sample, the data are expressed as a ratio of the level of LDH in wells containing cells transfected with anti-sense (AS) over the level of LDH in wells containing cells transfected with the reverse complement controls (RC) (ie:AS/RC). Thus, cells that become sensitized to drug will die and release LDH into the supernatant. An increase in the ratio signifies increased cell death and thus, higher levels of LDH in the media. A ratio higher than 1.5 signifies an effect of the anti-sense over the reverse complement control.

KIAA0175 = assay: Western analysis of KIAA0175 protein level after anti-sense transfection, HT1080 cells; format: cell-based, human
From the text: as §1

[4] = tested on: Breast Cancer Cell Line MDA-MB-231; assay: LDH cytotoxicity assay, breast cancer cell line; format: cell-based
Experimental: as §3, §4, §5, §6, §7, §8, §9

## KIA175-1182: KIAA0175 anti-sense oligonucleotide 5′-GGGTAGCACTGGCTTGTCCACAGGA-3′ (listed as DNA, chemistry not given here)
HT1080 cells; + γ-irradiation
  percentage of cells in G0-G1: 39.3%
  percentage of cells in G2-M: 42.17%
  percentage of cells in S: 18.6%
HT1080 cells; − γ-irradiation
  percentage of cells in G0-G1: 47.4%
  percentage of cells in G2-M: 26.8%
  percentage of cells in S: 25.7%
p53 [1]
  time of maximal anti-sense activity, p53 protein: 48 h
KIAA0175 mRNA; 100 nM oligonucleotide, Northern analysis
  level of KIAA0175 mRNA expression: effective in reducing the level of KIAA0175 mRNA expression
KIAA0175 mRNA; 24 to 72 hours after oligonucleotide administration
  KIAA0175 mRNA expression over time: increased gradually
p21
  p21 protein levels after γ-irradiation: reduction of p21 protein levels
p53 [2]
  γ-irradiation induced increase in p53 protein level: blocked the γ-irradiation induced increase in p53 protein level
[3]; 184B5, Day 0 (untransfected seeding control plate), 300 nM oligonucleotide
  LDH ratio AS/RC: 0.0000
[3]; 184B5, Day 1, 300 nM oligonucleotide, ratio higher than 1.5 signifies an effect
  LDH ratio AS/RC: 1.0223
[3]; 184B5, Day 2, 300 nM oligonucleotide, ratio higher than 1.5 signifies an effect
  LDH ratio AS/RC: 0.9065
[3]; 184B5, Day 3, 300 nM oligonucleotide, ratio higher than 1.5 signifies an effect
  LDH ratio AS/RC: 1.0663
[3]; 184B5 normal breast epithelial cell line
  effect on cell death (LDH): neither KIA175-1182 nor KIA175-545 has an effect
KIAA0175
  time of maximal anti-sense activity, KIAA0175 protein: 48 h
[4]; MDA-MB-231, Day 0 (untransfected seeding control plate), 300 nM oligonucleotide
  LDH ratio AS/RC: 0.76
[4]; MDA-MB-231, Day 1, 300 nM oligonucleotide, ratio higher than 1.5 signifies an effect
  LDH ratio AS/RC: 2.04
[4]; MDA-MB-231, Day 2, 300 nM oligonucleotide, ratio higher than 1.5 signifies an effect
  LDH ratio AS/RC: 1.67
[4]; MDA-MB-231, Day 3, 300 nM oligonucleotide, ratio higher than 1.5 signifies an effect
  LDH ratio AS/RC: 1.52
